19 molecules from patent publication US9751851B2, “Molecules and compositions that inhibit gram negative bacteria and their uses” (THE TRUSTEES OF PRINCETON UNIVERSITY, priority 2013, dated 2017) can be followed below.

Entries after “also recorded” stand apart in the source; their conditions may differ. Like-named read-outs stand apart in the source and are kept apart here.

The subject of experiment [1] is A549 human lung cells infected with P. aeruginosa PA14. Nature of the experiment: A549 human lung cell infection (propidium iodide uptake). The experiment is classed as cell-based. The following applies: wild-type and lasR mutant strains; 100 μM compound. How it is done:
Methods. Human A549 cells were grown in CellStar tissue culture flasks. Prior to infection, the A549 cells were treated with trypsin-EDTA (CellGro), split, counted, and aliquotted into 96 well plates at 20,000 mammalian cells/well (cell counts were estimated using Trypan Blue (CellGro) exclusion). Cells were grown for 20 hr at 37° C. in DMEM (Invitrogen). Cells were washed 3× with warm PBS (Gibco). 100 μL of “master mix” was added to each well for each condition. Master mix contained 1 mL pre-warmed-PBS, 5 μL of 2 mg/mL propidium iodide (Bioprobes), 1 μL of a 100 mM inhibitor stock or DMSO, and 10 μL of OD600=2 P. aeruginosa PA14 grown in the presence of mBTL or DMSO. Infections were monitored using an EnVision plate reader every 2 hr with the RFP filter supplied by GE.

A further experiment has as its target T1, RhlR (Pseudomonas aeruginosa, UniProt P54292).
T1 construct: expressed in transfected cells; host or cells: E. coli BL21-Gold (DE3) carrying pET23b-rhlR
Nature of the experiment: RhlR-GFP assay (rhlA-gfp reporter in recombinant E. coli). In kind it is cell-based, P. aeruginosa. How it is done:
(§1) Methods. The LasR-GFP assays were performed in E. coli strain BL21 DE3 Gold (Agilent) carrying pET23b (Novagen) containing lasR (maintained with 100 μg/mL ampicillin) and carrying plasmid pEVS141 (31) containing the rsaL promoter driving expression of gfp (maintained with […] of kanamycin.) The RhlR-GFP assays were performed in E. coli strain BL21 DE3 Gold (Agilent) carrying pET23b (Novagen) containing rhlR (maintained with 100 μg/mL ampicillin) and carrying plasmid pEVS141 containing the rhlA promoter driving expression of gfp (maintained with 50 μg/mL of kanamycin.) These E. coli strains were grown overnight and subcultured into fresh medium with appropriate antibiotics at a 1:100 dilution and grown shaking for 8 hr at 37° C. for the LasR-GFP strain and 12 hr for the RhlR-GFP construct. 50 nM 3OC12-HSL or 20 μM C4-HSL was added to the LasR-GFP and RhlR-GFP preparations, respectively. Compounds were tested at 1 mM for antagonism and at 100 nM or 20 μM for agonism. These concentrations were chosen for agonism studies to match the concentrations of autoinducers used in the experiments. For antagonism studies, the EC95 concentration was used for each receptor. GFP was measured on an Envision plate reader.
(§2) The LasR-GFP assays were performed in E. coli strain BL21 DE3 Gold (Agilent) carrying pET23b (Novagen) containing lasR (maintained with 100 μg/mL ampicillin) and carrying plasmid pEVS141 (31) containing the rsaL promoter driving expression of gfp (maintained with 50 μg/mL of kanamycin.) The RhlR-GFP assays were performed in E. coli strain BL21 DE3 Gold (Agilent) carrying pET23b (Novagen) containing rhlR (maintained with 100 μg/mL ampicillin) and carrying plasmid pEVS141 (31) containing the rhlA promoter driving expression of gfp (maintained with 50 μg/mL of kanamycin.) These E. coli strains were grown overnight and subcultured into fresh medium with appropriate antibiotics at a 1:100 dilution and grown shaking for 8 hr at 37° C. for the LasR-GFP strain and 12 hr for the RhlR-GFP construct. 50 nM 3OC12-HSL or 20 μM C4-HSL was added to the LasR-GFP and RhlR-GFP preparations, respectively. Compounds were tested at 1 mM for antagonism and at 100 nM or 20 μM for agonism. These concentrations were chosen for agonism studies to match the concentrations of autoinducers used in our experiments. For antagonism studies, we used the EC95 concentration for each receptor. GFP was measured on an Envision plate reader.

For experiment [2], the system named is wild-type P. aeruginosa PA14. Nature of the experiment: microbe, parasite or virus in culture. The following applies: for inhibition of pyocyanin production (in words): wild-type P. aeruginosa PA14, end point assays at 100 μM; for IC50: read-out: IC50 for inhibition of pyocyanin production; for inhibition at 100 µM / Efficacy (%): reduction of pyocyanin vs WT P. aeruginosa PA14: 0% = WT level, 100% = background medium. In kind it is cell-based. The procedure: Methods. The oxidized form of pyocyanin imparts a green color to P. aeruginosa cultures, making the production of pyocyanin convenient to monitor by UV/Vis absorbance. Overnight P. aeruginosa cultures were subcultured into 5 mL fresh medium at 1:1000 dilution. Synthetic compounds were assayed at 100 μM for end point assays and at concentrations ranging from 200 nM to 200 μM for titrations following 17 hr of aerobic growth with shaking at 37° C. Cells were separated from culture fluids via centrifugation at 13,000 rpm for 15 min. Culture fluids were passed through 0.22 μm syringe driven filters (Millipore). Cell-free culture fluids were analyzed for pyocyanin using wavelength scans on a Beckman Coulter DU-800 spectrophotometer from 200 nm to 800 nm 695 nm was chosen for graphical representation. Titration data were fit with a variable-slope sigmoidal dose-response curve using GraphPad Prism to determine the IC50 values.
The compounds of the first library were assayed in wild-type (WT) P. aeruginosa PA14. Pyocyanin was used as a read-out for quorum sensing activity based on its absorbance at 695 nm. The efficacy of the compounds at reducing pyocyanin levels was calculated with respect to WT levels of pyocyanin, where WT levels of pyocyanin would lead to a 0% efficacy, and an absorbance equal to the background medium would lead to a 100% efficacy. Agonists that increase pyocyanin production have negative efficacy values.

The next experiment addresses T2, LasR (Pseudomonas aeruginosa, UniProt P25084).
T2 construct: expressed in transfected cells; host or cells: E. coli BL21-Gold (DE3) carrying pET23b-lasR
Nature of the experiment: LasR-GFP assay (rsaL-gfp reporter in recombinant E. coli). The experiment is classed as cell-based, P. aeruginosa. The procedure: as §1, §2

A further experiment has as its system P. aeruginosa PA14. Nature of the experiment: Growth of P. aeruginosa monitored by absorbance at 600 nm. In kind it is cell-based.
Setting [3] is: WT P. aeruginosa PA14, 17 hr growth, titration.
[4] abbreviates: Pseudomonas aeruginosa, PA14, 17 h, read-out: Efficacy (%), Table 2, negative = agonist.
[5] abbreviates: Pseudomonas aeruginosa, PA14, 17 h, read-out: Efficacy (%), Table 4.
Where [6] appears, read: Pseudomonas aeruginosa, PA14, 17 h, read-out: Efficacy (%), Table 3.
The mark [7] stands for this setting: Pseudomonas aeruginosa, PA14, 17 h, read-out: Efficacy (%), Table 1, negative = agonist.

What is called IC50 is the concentration at which inhibition is half-maximal.

T2 sequence (P25084 whole entry): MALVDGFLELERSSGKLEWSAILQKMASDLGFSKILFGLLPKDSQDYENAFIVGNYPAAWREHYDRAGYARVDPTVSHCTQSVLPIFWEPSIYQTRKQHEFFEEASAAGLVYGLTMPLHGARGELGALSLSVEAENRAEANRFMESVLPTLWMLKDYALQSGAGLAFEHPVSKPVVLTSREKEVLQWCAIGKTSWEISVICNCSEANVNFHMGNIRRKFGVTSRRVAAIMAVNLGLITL
T1 sequence (P54292 whole entry): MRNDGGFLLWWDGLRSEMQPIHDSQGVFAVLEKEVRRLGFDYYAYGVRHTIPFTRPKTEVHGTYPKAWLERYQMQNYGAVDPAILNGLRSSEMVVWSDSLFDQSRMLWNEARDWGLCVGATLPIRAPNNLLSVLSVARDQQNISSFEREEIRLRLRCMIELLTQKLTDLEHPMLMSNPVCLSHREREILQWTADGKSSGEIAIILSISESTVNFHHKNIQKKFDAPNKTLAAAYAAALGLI

For the molecule chlorolactone [CL], the “killing of A549 cells by P. aeruginosa” value in experiment [1] is “does not attenuate killing of A549 lung cells”. Further, the “RhlR agonism (in words)” value on RhlR (20 μM, no autoinducer) was “does not agonize either receptor”. The “inhibition of RhlR-directed transcription in E. coli (in words)” value on RhlR (tested at 1 mM with C4-HSL) is “more potent inhibitor of both LasR- and RhlR-directed transcription in E. coli than is mBTL; also recorded: inhibits LasR- and RhlR-controlled transcription”. Moreover, in experiment [2], the “inhibition of pyocyanin production (in words)” value is “Neither CL nor CTL inhibited pyocyanin production; also recorded: no in vivo inhibition of pyocyanin production”. Besides, the “LasR agonism (in words)” value at LasR (100 nM, no autoinducer) is on record as “does not agonize either receptor”. Besides, the “inhibition of LasR-directed transcription in E. coli (in words)” value at LasR (tested at 1 mM with 3OC12-HSL) is “more potent inhibitor of both LasR- and RhlR-directed transcription in E. coli than is mBTL; also recorded: inhibits LasR- and RhlR-controlled transcription”.
For `O=C(CCCOc1cccc(Cl)c1)NC1CCSC1=O` (stereo not shown) [mCTL], the IC50 in experiment [2] (setting [3]) was 9 µM. Further, the “inhibition of pyocyanin production (in words)” value in experiment [2] is “potent inhibition of pyocyanin”. Further, the “effect on P. aeruginosa PA14 growth” value with P. aeruginosa PA14 is on record as “not affecting P. aeruginosa PA14 growth”.
Take `CCCCCCCCCCCC(=O)Nc1ccnc(F)c1` [compound 15, C12-4-amino-2-fluoropyridine]: the inhibition at 100 µM in experiment [2] (setting [4]) came out at 70%. For the same molecule, the “Efficacy (%)” value in experiment [2] (Table 2, negative = agonist) is on record as 70 ± 2%.
Regarding `O=C(COc1cccc(Br)c1)Nc1ccnc(F)c1` [S40, 4-amino-2-fluoropyridine-C4-3-bromophenoxyhybrid], the “Efficacy (%)” value in experiment [2] (Table 3) is 32 ± 4%.
In the case of `O=C(COc1cccc(I)c1)Nc1ccnc(C(F)(F)F)c1` [S66, 4-amino-2-trifluoromethylpyridine-C6-3-iodophenoxyhybrid], the inhibition at 100 µM in experiment [2] (setting [5]) is 95%. Besides, in experiment [2] (Table 4), the “Efficacy (%)” value is listed as 95 ± 3%.
For `COc1nccc(NC(=O)COc2cccc(Br)c2)n1` [S53, 4-amino-2-methoxypyrimidine-C6-3-bromophenoxyhybrid], in experiment [2] (setting [6]), the inhibition at 100 µM is 16 ± 5%.
Consider `CCCCCCCCCCCCNC(=O)Cc1c[nH]c2ccccc12` [S34, C12-3-(methylamido)indole], for which the inhibition at 100 µM in experiment [2] (setting [4]) was found to be 0.6 ± 4%.
Take `O=C(CCCOc1cccc(Br)c1)N[C@H]1CCSC1=O` [(S)-mBTL]: the IC50 in experiment [2] (setting [3]) stood at 4 µM.
In the case of `O=C(COc1cccc(Br)c1)Nc1ccnc(Cl)c1` [S55, 4-amino-2-chloropyridine-C6-3-bromophenoxyhybrid], in experiment [2] (setting [6]), the inhibition at 100 µM was found to be 89%. In experiment [2] (Table 3), the “Efficacy (%)” value was determined as 89 ± 5%.
Regarding `O=C(COc1ccccc1F)Nc1ccnc(C(F)(F)F)c1` [S69, 4-amino-2-trifluoromethylpyridine-C6-2-fluorophenoxyhybrid], the inhibition at 100 µM in experiment [2] (setting [5]) turned out to be 78 ± 3%.
On to `O=C(COc1ccccc1Br)Nc1ccnc(C(F)(F)F)c1` [S65, 4-amino-2-trifluoromethylpyridine-C6-2-bromophenoxyhybrid], for which the inhibition at 100 µM in experiment [2] (setting [5]) is 94%. The “Efficacy (%)” value in experiment [2] (Table 4) worked out at 94 ± 4%.
Consider `COc1cc(NC(=O)COc2cccc(Br)c2)nc(OC)n1` [S54, 4-amino-2,6-dimethoxypyrimidine-C6-3-bromophenoxyhybrid], for which the inhibition at 100 µM in experiment [2] (setting [6]) came to 15 ± 7%.
In the case of `O=C(COc1cccc(Br)c1)Nc1cc(C(F)(F)F)cc(C(F)(F)F)c1` [S60, 1-amino-3,5-bis(trifluoromethyl)-C6-3-bromophenoxyhybrid], the inhibition at 100 µM in experiment [2] (setting [6]) was 44%. For the same molecule, the “Efficacy (%)” value in experiment [2] (Table 3) turned out to be 44 ± 8%.
Take `CCCCCCCCCC(=O)CC(=O)Nc1ncccn1` [S5, 3OC12-2-aminopyrimidine]: the inhibition at 100 µM in experiment [2] (setting [7]) was -0.51 ± 4%.
On to `CCCCCCCCCC(=O)CC(=O)Nc1ccncn1` [S3, 3OC12-4-aminopyrimidine], for which the inhibition at 100 µM in experiment [2] (setting [7]) stood at 64 ± 0.8%.
For the molecule `CCCCCCCCCCCC(=O)Nc1c(F)c(F)nc(F)c1F` [S19, C12-4-amino-2,3,5,6-tetrafluoropyridine], the inhibition at 100 µM in experiment [2] (setting [4]) was -12 ± 3%.
On to `O=C(COc1cccc(Br)c1)Nc1ccnc(C(F)(F)F)c1` [S58, 4-amino-2-trifluoromethylpyridine-C7-3-bromophenoxyhybrid], for which the “Efficacy (%)” value in experiment [2] (Table 3, listed as drawing 77) came out at 23 ± 7%.
On to `CCCCCCCCCNC(=O)CC(=O)c1ccccc1` [V-06-018, reference compound], for which the IC50 in experiment [2] (Pseudomonas aeruginosa, PA14, 17 h) worked out at 18 µM.
As for `CCCCCCCCCCCC(=O)Nc1ccnc(OC)c1` [S15, C12-4-amino-2-methoxypyridine], the inhibition at 100 µM in experiment [2] (setting [4]) was -5.1 ± 1%.
